Assays:
[1] = Metabolic stability in human liver microsomes assessed as compound remaining after 30 mins; assay type: ADME, Microsome; conditions: read-out: Stability
[2] = Metabolic stability in mouse liver microsomes assessed as compound remaining; assay type: ADME, Microsome

CCC[C@@H](CCO)Nc1nc(N)nc2c3ccccc3n(Cc3cc(CNC[C@@H]4CCOC4)ccc3OC)c12
remaining at 0.5 h [1]: 4% | Stability [2]: 1%
